Ends that are not written are not given here.
What was measured:
D1-D2 coupling = details: rat, in vivo, sc, 10 mg/kg/day
D1R = test: Western blot of D1R levels in striata of chronically treated rats; format: in vivo; details: rat striata; 10 mg/kg/day subcutaneously for 14 days
D2R = test: Western blot of D2R levels in striata of chronically treated rats; format: in vivo; details: rat striata; 10 mg/kg/day subcutaneously for 14 days
D1 receptors = target: T1, D1 receptors (Rattus norvegicus, UniProt P18901); test: GST-fusion protein affinity pull-down of D1 receptor from solubilized rat striatum; format: binding; details: FIG. 1C-1E
T1 construct: D1 receptor was specifically pulled down by GST-D2IL3-L in detergent extracts of rat striatum; from tissue; host or cells: rat striatum, detergent-solubilized
T1 sequence (P18901 whole entry, the tested form may be a part): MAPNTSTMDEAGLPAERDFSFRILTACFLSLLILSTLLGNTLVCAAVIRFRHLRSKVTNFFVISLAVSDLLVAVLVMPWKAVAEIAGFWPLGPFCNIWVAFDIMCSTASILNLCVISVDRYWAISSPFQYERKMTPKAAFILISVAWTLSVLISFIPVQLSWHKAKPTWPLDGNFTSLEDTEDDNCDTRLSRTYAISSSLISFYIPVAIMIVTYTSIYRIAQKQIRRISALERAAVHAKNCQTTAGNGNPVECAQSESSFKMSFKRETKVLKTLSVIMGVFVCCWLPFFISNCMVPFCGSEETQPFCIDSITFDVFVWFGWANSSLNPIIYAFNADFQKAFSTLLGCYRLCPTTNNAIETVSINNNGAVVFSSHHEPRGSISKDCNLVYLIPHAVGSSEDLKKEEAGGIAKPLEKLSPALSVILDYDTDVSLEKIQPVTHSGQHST
Text: (§1) To confirm previous reports of a D1-D2 receptor complex we used rat striata in co-immunoprecipitation (co-IP) experiments. […] In an attempt to define the structural basis for the observed D1-D2 coupling, we carried out affinity purification using GST (glutathione-S-transferase)-fusion proteins encoding the D1CT and the third intracellular loop (D1IL3), since both D1CT: A332-T446 and D1IL3: R219-K272 contain putative consensus sequences for receptor phosphorylation, desensitization and potential binding sites for various proteins important for signalling (e.g. G proteins, NMDA receptor NR1, NR2A subunits)^81-82. […] To locate the interacting site on D2R, GST-fusion proteins encoding IL3 from both the D2 short (D2S) and D2 Long (D2L) (GST-D2IL3-L: K211-Q373, GST-D2IL3-S:K211-[…]) were used in affinity purification assays. […] Since the D2L and D2S are differentiated by the additional 29 amino-acid within the third intracellular loop, the fact that only D2L but not D2S interacts with D1R made us suspect that this specific 29 amino-acid may contain the D1-D2 interacting site.

D1-D2 interaction = target: T2, D1-D2 interaction (Rattus norvegicus, UniProt P18901); test: competitive co-immunoprecipitation of D1 receptor with D2 receptor in rat striatum; format: binding; details: preincubation, FIG. 1G
T2 construct: from tissue; host or cells: rat striatum
T2 sequence (P18901 whole entry): as the sequence (P18901 whole entry, the tested form may be a part) above
Text: The ability of D1 receptor to co-immunoprecipitate with D2 receptor is inhibited by the addition of GST-D2IL3-29-2 in a concentration dependent manner;
as §1

D1 tail = target: T3, D1 tail (Homo sapiens, UniProt P21728); test: in vitro binding assay with S^35-D1 tail probe; details: FIG. 1F
T3 construct: D1CT A332-T446
T3 sequence (P21728 332-446): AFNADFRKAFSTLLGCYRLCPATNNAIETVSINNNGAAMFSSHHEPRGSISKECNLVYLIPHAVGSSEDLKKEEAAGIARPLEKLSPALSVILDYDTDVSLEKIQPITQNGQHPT
Text: as §1

[1] = target: T4, HEK-293T cells co-expressing D1 and D2 receptors (Homo sapiens, UniProt P14416+P21728); test: Fluo-4AM fluorescence measurement of intracellular Ca^2+ in HEK-293T cells co-expressing D1 and D2 receptors; format: cell-based; details: pretreatment 10 μM
T4 construct: expressed in transfected cells; host or cells: HEK-293T
T4 sequence (P21728 whole entry): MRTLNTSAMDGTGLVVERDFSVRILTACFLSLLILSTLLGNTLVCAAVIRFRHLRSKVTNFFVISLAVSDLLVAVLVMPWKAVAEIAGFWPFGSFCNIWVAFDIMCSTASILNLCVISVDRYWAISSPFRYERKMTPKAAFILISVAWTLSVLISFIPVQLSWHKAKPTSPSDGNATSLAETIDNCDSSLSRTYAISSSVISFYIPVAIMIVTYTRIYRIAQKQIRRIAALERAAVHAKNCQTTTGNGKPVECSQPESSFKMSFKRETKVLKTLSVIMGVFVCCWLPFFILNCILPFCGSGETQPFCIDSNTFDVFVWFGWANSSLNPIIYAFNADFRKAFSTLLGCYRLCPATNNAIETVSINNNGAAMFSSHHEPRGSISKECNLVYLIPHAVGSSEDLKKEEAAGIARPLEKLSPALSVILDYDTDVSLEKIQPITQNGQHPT
T4 sequence (P14416 whole entry): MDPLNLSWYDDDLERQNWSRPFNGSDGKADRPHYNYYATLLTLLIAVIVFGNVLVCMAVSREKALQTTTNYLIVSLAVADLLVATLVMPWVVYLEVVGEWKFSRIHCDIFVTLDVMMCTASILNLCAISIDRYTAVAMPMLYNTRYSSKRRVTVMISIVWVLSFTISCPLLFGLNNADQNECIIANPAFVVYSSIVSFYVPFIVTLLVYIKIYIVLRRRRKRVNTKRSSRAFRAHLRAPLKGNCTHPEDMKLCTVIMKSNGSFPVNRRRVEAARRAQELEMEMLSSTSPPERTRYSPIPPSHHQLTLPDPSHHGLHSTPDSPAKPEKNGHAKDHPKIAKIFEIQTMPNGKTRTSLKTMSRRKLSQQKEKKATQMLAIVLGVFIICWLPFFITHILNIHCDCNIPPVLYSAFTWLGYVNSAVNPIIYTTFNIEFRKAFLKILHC
Text: Fluorescence values were monitored using a PerkinElmer multiwell plated fluorometer, collected at 3-s intervals for 150 s. (A.F.U.: arbitrary fluorescence units).
To investigate the functional implication of the D1-D2 coupling, we examined the ability of this complex to promote Gq/11 signaling as indexed by changes in intracellular Ca^2+ levels^83-85.

D2 receptors = details: rat, in vivo

Molecule	pull-down of D1 receptors (D1 receptors)	binding of S^35-D1 tail probe (D1 tail)	block of the Ca^2+ increase induced by co-activation with 10 μM SKF81297 and 10 μM quinpirole [1]	other results
CN(C)CCCN1c2ccccc2CCc2ccccc21 [imipramine]	–	–	–	D1-D2 coupling (co-immunoprecipitation) (D1-D2 coupling): decrease in D1-D2 coupling; D1R levels (Western blot) vs control rats (D1R): no significant change; D2R levels (Western blot) vs control rats (D2R): no significant change
GST-D2LIL3-29-2: GST-fusion protein encoding D2LIL3-29-2: I256-V270 (IMKSNGSFPVNRRRV; also: GST fusion protein)	can successfully pull-down D1R	specifically bound	–	inhibition of D1-D2 interaction as indexed by co-immunoprecipitation (D1-D2 interaction): inhibits the D1-D2 interaction as indexed by the co-immunoprecipitation in a concentration dependent manner
GST-D2LIL3-29-1: GST-fusion protein encoding D2LIL3-29-1: G242-V255 (GNCTHPEDMKLCTV; cysteine pairing not given here; also: GST fusion protein)	not	not	–	–
CCN1CCC[C@H]1CNC(=O)c1c(O)c(Cl)cc(Cl)c1OC [raclopride]	–	–	blocked	–
COc1ccc2c(c1)CC[C@@H]1[C@@H]2CC[C@]2(C)[C@@H](NCCCCCCN3C(=O)C=CC3=O)CC[C@@H]12 [U73122]	–	–	inhibited the increase in Ca^2+ levels	–
O=C(CCCN1CCC(O)(c2ccc(Cl)cc2)CC1)c1ccc(F)cc1 [haloperidol]	–	–	–	direct immunoprecipitated D2 receptors (D2 receptors): remain unchanged
